The values that follow come from patent publication US3963707A, “Novel N-nitroso compounds, compositions containing such compounds, processes for their preparation and methods of treatment therewith, and novel intermediates” (Aktiebolaget Leo, priority 1973, dated 1976).

Series [1] relates to Ehrlich ascites tumour, ELD hyperdiploid (46 chromosomes). The series can be described thus: Ehrlich ascites tumour test (LD50, ED50, therapeutic index). Format: in vivo, SPF NMRI mice. The following applies: additional compounds, result in words. The method in brief:
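SPF NMRI mice implanted i.p. with 2 × 10^6 Ehrlich ascites (ELD hyperdiploid) cells and given a single i.p. dose the next day; killed on day 8. ED50 = dose halving tumour weight versus controls, LD50 = dose lethal to 50%; T.I. = LD50/ED50.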

Series [2] concerns Hepatoma AH 130. As to the kind of experiment: in vivo. The following applies: additional compounds, result in words. On the set-up: species or system SPF Wistar rats. The method in brief:
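SPF Wistar rats were implanted i.p. with 5 × 10^6 AH 130 cells and given one i.p. dose the next day. On day 8 they were killed and tumour weights were compared with controls. ED50 is the dose halving tumour size, LD50 the 50% lethal dose, and T.I. is LD50/ED50.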

Series [3] is described as follows: Progestational activity in the Clanberg test. In kind it is in vivo. The following applies: standard scale of McPhail.
Series [4] has as its system ventral prostate. The following applies: as reported in the literature; cited from earlier work.
Series [5] is described as follows: Thymolytic effect according to A. C. Hilger (assay 8). To be noted: in vivo. The text has this: Thymolytic effect according to A. C.
Series [6] has as its system Lymphatic leukemia L 1210. The series can be described thus: Lymphatic leukemia L 1210 test. In kind it is in vivo, CDF1 (C3H×DBA/2)F1 mice. To be noted: result in words, dose not given. The method in brief:
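CDF1 (C3H×DBA/2)F1 mice implanted i.p. with 10^5 L1210 cells; single i.p. dose on the day after implantation. Survival time of treated animals expressed as percentage of controls (T/C), with weight change versus controls up to day 5. Day-5 mortality in treated animals must not exceed 35%.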

For series [7], the system named is lymphoid leukemia (L 1210). The following applies: result in words; cited from earlier work.
For series [8], the system named is Sarcoma 180. To be noted: result in words; cited from earlier work.
The conditions of series [9]: acute intraperitoneal toxicity in mice; cited from earlier work.
Series [10] deals with Adenocarcinoma 755. To be noted: result in words; cited from earlier work.
Series [11] has as its system Walker 256. To be noted: result in words; cited from earlier work.

Molecules are shown by their SMILES.

On to `C#C[C@]1(OC(C)=O)CC[C@H]2[C@@H]3CCC4=C[C@@H](OC(=O)N(C(=O)N(CCCl)N=O)C5CCCCC5)CC[C@@H]4[C@H]3CC[C@@]21C` [ethynodiol-17β-acetate-3β-/N^2-cyclohexyl-N^4-(2-chloroethyl)-N^4-nitroso allophanate/], for which the anti-tumor activity result in [1] and in series [2] was “exhibit anti-tumor activity” throughout. Moreover, the “progestational activity compared with ethynodiol-3,17-diacetate” value in series [3] was “about half that of ethynodiol-3,17 -diacetate”.

As for `C[C@]12CC[C@H](O)CC1=CC[C@@H]1[C@@H]2CC[C@]2(C)C(=O)CC[C@@H]12` [dehydroepiandrosterone, androst-5-en-3β-ol-17-one], in series [4], the “androgenic effect compared with testosterone” value is on record as “weaker androgenic effect”.

Turning to `C[C@]12C=CC(=O)C=C1CC[C@@H]1[C@@H]2[C@@H](O)C[C@@]2(C)[C@H]1CC[C@]2(O)C(=O)COC(=O)N(CCCl)N=O` [prednisolone-21-N-(2-chloroethyl)-N-nitroso carbamate], the anti-tumor activity result in series [1] and in series [2] was “exhibit anti-tumor activity” throughout. For the same compound, the “thymolytic activity compared with prednisolone acetate” value in [5] was “about the same activity as prednisolone acetate”. In series [6], the “effect on L 1210” value is reported as “show a significant effect”.

On to `C#C[C@]1(OC(C)=O)CC[C@H]2[C@@H]3CCC4=C[C@@H](OC(=O)N(CCCl)N=O)CC[C@@H]4[C@H]3CC[C@@]21C` [ethynodiol-17β-acetate-3β-N-(2-chloroethyl)-N-nitroso carbamate], for which the anti-tumor activity result in series [1] and in series [2] was “exhibit anti-tumor activity” in each case. Further, the “progestational activity compared with ethynodiol-3,17-diacetate” value in series [3] was “about half that of ethynodiol-3,17 -diacetate”.

For orientation: LD50 means the dose at which mortality reaches 50%. Consider `CCOC(=O)N(CCCl)N=O` [C2 H5 --], for which the “activity against lymphoid leukemia (L 1210)” value in [7] was “inactive”. In addition, the “activity against Sarcoma 180” value in series [8] is “inactive”. Moreover, the LD50 in series [9] was 2 mg/kg. In addition, the “activity against Adenocarcinoma 755” value in series [10] is “inactive”.

For the compound `CC(C)COC(=O)N(CCCl)N=O` [(CH3)2 CHCH2 --], the “activity against lymphoid leukemia (L 1210)” value in series [7] is “inactive”. For the same compound, the LD50 in [9] was 7 mg/kg. Also, the “activity against Walker 256” value in [11] was “inactive”.
